Data published in patent publication US20250051347A1, “BIFUNCTIONAL CHIMERIC HETEROCYCLIC COMPOUND AND USE THEREOF AS ANDROGEN RECEPTOR DEGRADER” (Hinova Pharmaceuticals, Inc., priority 2021, published 2025).
Where two headings read alike, the source gives them in different places.

Columns and labels:
[1] = target: T1, androgen receptor (AR) splicing variant AR-v7 (Homo sapiens, UniProt P10275); test: Degradation activity on androgen receptor splicing variant AR-v7 in 22RV1 cells (ELISA); format: cell-based; details: AR-v7 degradation in 22RV1 cells, 48 h, class symbols
T1 construct: The degradation activity of compounds on AR-v7 in 22RV1 cells; host or cells: 22RV1 cells
T1 sequence (P10275 1-644 isoform P10275-3): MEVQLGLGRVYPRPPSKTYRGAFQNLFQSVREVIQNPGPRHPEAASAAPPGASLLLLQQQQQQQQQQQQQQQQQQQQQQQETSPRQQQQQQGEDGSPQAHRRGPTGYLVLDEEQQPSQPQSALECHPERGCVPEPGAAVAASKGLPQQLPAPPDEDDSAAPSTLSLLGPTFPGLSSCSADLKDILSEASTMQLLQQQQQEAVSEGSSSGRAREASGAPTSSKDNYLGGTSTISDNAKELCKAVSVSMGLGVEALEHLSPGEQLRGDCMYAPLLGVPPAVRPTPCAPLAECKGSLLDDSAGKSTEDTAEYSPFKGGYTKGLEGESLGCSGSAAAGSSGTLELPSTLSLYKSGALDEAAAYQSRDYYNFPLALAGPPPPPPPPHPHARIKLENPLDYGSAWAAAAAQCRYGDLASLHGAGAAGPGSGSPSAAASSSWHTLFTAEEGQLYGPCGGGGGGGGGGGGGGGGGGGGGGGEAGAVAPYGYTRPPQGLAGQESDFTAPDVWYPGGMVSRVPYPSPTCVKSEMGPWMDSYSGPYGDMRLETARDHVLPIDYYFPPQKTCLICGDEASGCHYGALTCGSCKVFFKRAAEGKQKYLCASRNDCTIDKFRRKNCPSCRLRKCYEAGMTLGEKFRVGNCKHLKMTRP

[2] = Pharmacokinetics in mice (plasma exposure after oral administration); format: in vivo; details: ICR mice, oral (i.g.) 3 mg/kg; for AUC(0-inf): mouse, read-out: After oral administration of 3 mg/kg, mouse plasma exposure AUCinf
Protocol: • LC-20AD high performance liquid chromatography (SHIMADZU, Japan) • API4000 triple quadrupole mass spectrometer (Applied Biosystem, USA) • Phenix Winnolin Pharmacokinetic software (Version 6.3, Certara, USA) • High speed freezing centrifuge (Thermo Fisher Scientific) • Analytical balance (Sartorius, SECURA225D-ICN) • ICR mice (Chengdu Dossy Experimental Animals CO., LTD.)
A suitable amount of drug was accurately weighed, and then the medium (5% DMSO, 15% HS-15, 80% DSW) was added to prepare the solution at a concentration of 0.1 mg/ml (i.v.) and 0.3 mg/ml (i.g.).
18 healthy adult ICR mice were divided into two groups (9 mice for i.v. group; 9 mice for i.g. group), and administered by tail vein or by gavage after fasting overnight (free drinking water); using the satellite blood collection method, 3 animals were collected at each time point, and then 0.1 ml of blood obtained at different time points was anticoagulated with EDTA-K2, centrifuged at 4° C. for 5 min to separate the plasma, and stored at −80° C. for detection. The sampling time points after i.v. administration were 5 min, 15 min, 0.5 h, 1 h, 2 h, 4 h, 8 h, 12 h, and 24 h; while the sampling time points for i.g. group were before administration (0 h) as well as 0.5 h, 1 h, 2 h, 4 h, 6 h, 8 h, 12 h, and 24 h after administration. Then, the drug concentration in plasma was determined by LC/MS/MS.

[3] = tested on: 22RV1 cells
[4] = Homo sapiens, 22Rv1, 144 h, read-out: 22RV1 IC50 (nM), 22RV1 cells, 6 days culture, CCK-8, OD 450 nm
[5] = read-out: 22RV1 IC50, 22RV1 cells, 6 days culture, CCK-8, OD 450 nm

Row | Structure (SMILES) | DC50 [1] [nM] | AUC(0-inf) [2] [ng·h/mL] | IC50 [3, 4] [nM] | IC50 [3, 5] [nM] | After oral administration of 3 mg/kg, mouse plasma exposure AUCinf (μg*h/mL) [2]
1 | CC(C)(c1ccc(Oc2cnc(C#N)nc2)cc1)c1ccc(O[C@H]2C[C@H](Nc3ccc4c(c3)C(=O)N(C3CCC(=O)NC3=O)C4=O)C2)cc1 (stereo partly drawn) [Example 97, 5-(4-(2-(4-((1r,3r)-3-((2-(2,6-dioxopiperidin-3-yl)-1,3-dioxoisoindolin-5-yl)amino)cyclobutyloxy)phenyl)propan-2-yl)phenoxy)pyrimidin-2-carbonitrile] | < 10 | 5000 to 30000 | 15 | – | –
2 | CC(C)(c1ccc(Oc2ccc(C#N)nn2)cc1)c1ccc(O[C@H]2C[C@H](Nc3ccc4c(c3)C(=O)N(C3CCC(=O)NC3=O)C4=O)C2)cc1 (stereo partly drawn) [Example 98, 6-(4-(2-(4-((1r,3r)-3-((2-(2,6-dioxopiperidin-3-yl)-1,3-dioxoisoindolin-5-yl)amino)cyclobutyloxy)phenyl)propan-2-yl)phenoxy) pyridazine-3-carbonitrile] | < 10 | 100 to 1000 | 4 | – | –
3 | Cc1nc(-c2ncc(Oc3ccc(C(C)c4ccc(O[C@H]5C[C@H](Nc6ccc7c(c6)C(=O)N(C6CCC(=O)NC6=O)C7=O)C5)cc4)cc3)cn2)no1 (stereo partly drawn) [Example 99] | < 10 | 5000 to 30000 | – | 17 | –
4 | CC(=O)c1nccc(COc2ccc(C(C)(C)c3ccc(O[C@H]4C[C@H](Nc5ccc6c(c5)C(=O)N(C5CCC(=O)NC5=O)C6=O)C4)cc3)cc2)n1 (stereo partly drawn) [Example 110, 5-(((trans)-3-(4-(2-(4-((2-acetylpyrimidin-4-yl)methoxy)phenyl)propan-2-yl)phenoxy)cyclobutyl)amino)-2-(2,6-dioxopiperidin-3-yl)isoindolin-1,3-dione] | < 10 | 5000 to 30000 | 3 | – | –
5 | CC(=O)c1ncc(Oc2ccc(C(C)(C)c3ccc(O[C@H]4C[C@H](Nc5ccc6c(c5)C(=O)N(C5CCC(=O)NC5=O)C6=O)C4)cc3)cc2)cn1 (stereo partly drawn) [Example 119, 5-(((trans)-3-(4-(2-(4-((2-acetylpyrimidin-5-yl)oxy)phenyl)propan-2-yl)phenoxy)cyclobutyl)amino)-2-(2,6-dioxopiperidin-3-yl) isoindolin-1,3-dione] | < 10 | 5000 to 30000 | 2 | – | –
6 | CC(O)c1ccc(Oc2ccc(C(C)(C)c3ccc(O[C@H]4C[C@H](Nc5ccc6c(c5)C(=O)N(C5CCC(=O)NC5=O)C6=O)C4)cc3)cc2)nn1 (stereo partly drawn) [Example 125] | < 10 | 5000 to 30000 | 10 | – | –
7 | CC(=O)c1ccc(Oc2ccc(C(C)(C)c3ccc(O[C@H]4C[C@H](Nc5ccc6c(c5)C(=O)N(C5CCC(=O)NC5=O)C6=O)C4)cc3)cc2)nn1 (stereo partly drawn) [Example 126, 5-(((trans)-3-(4-(2-(4-((6-acetylpyridazine-3-yl)oxy)phenyl)propan-2-yl)phenoxy)cyclobutyl)amino)-2-(2,6-dioxopiperidin-3-yl)isoindolin-1,3-dione] | < 10 | 5000 to 30000 | 6 | – | –
8 | CC(C)(c1ccc(OCc2ccnc(N3CC4(COC4)C3)n2)cc1)c1ccc(N2CC(Nc3ccc4c(c3)C(=O)N(C3CCC(=O)NC3=O)C4=O)C2)cc1 (stereo not drawn) [Example 154] | < 10 | 1000 to 5000 | 7 | – | –
9 | Cc1nc(-c2ccnc(Oc3ccc(C(C)(C)c4ccc(O[C@H]5C[C@H](Nc6ccc7c(c6)C(=O)N(C6CCC(=O)NC6=O)C7=O)C5)cc4)cc3)n2)no1 (stereo partly drawn) [Example 166] | < 10 | 5000 to 30000 | 6 | – | –
10 | CCC(CC)(c1ccc(Oc2ccc(C(C)O)nn2)cc1)c1ccc(O[C@H]2C[C@H](Nc3ccc4c(c3)C(=O)N(C3CCC(=O)NC3=O)C4=O)C2)cc1 (stereo partly drawn) [Example 175, 2-(2,6-dioxopiperidin-3-yl)-5-(((1r,3r)-3-(4-(3-(4-((6-(1-hydroxylethyl)pyridazine-3-yl)oxy)phenyl)pentan-3-yl)phenoxy)cyclobutyl)amino)isoindolin-1,3-dione] | < 10 | 1000 to 5000 | 4 | – | –
11 | CNC(=O)c1nccc(COc2ccc(C(C)(C)c3ccc(OCCCNc4ccc5c(c4)C(=O)N(C4CCC(=O)NC4=O)C5=O)cc3)cc2)n1 (stereo not drawn) [Example 183, 4-((4-(2-(4-(3-((2-(2,6-dioxopiperidin-3-yl)-1,3-dioxoisoindolin-5-yl)amino)propoxy)phenyl)propan-2-yl)phenoxy)methyl)-N-methylpyrimidin-2-carbonylamine] | 11 to 100 | 100 to 1000 | 20 | – | –
12 | CNC(=O)c1nccc(COc2ccc(C(C)(C)c3ccc(O[C@H]4C[C@@H](Nc5ccc6c(c5)C(=O)N(C5CCC(=O)NC5=O)C6=O)C4)cc3)cc2)n1 (stereo partly drawn) [Example 187, 4-((4-(2-(4-((1s,3s)-3-((2-(2,6-dioxopiperidin-3-yl)-1,3-dioxoisoindolin-5-yl)amino)cyclobutyloxy)phenyl)propan-2-yl)phenoxy)methyl)-N-methylpyrimidin-2-carbonylamine] | < 10 | 100 to 1000 | 6 | – | –
13 | COc1ncc2c(n1)CN(c1ccc(C(C)(C)c3ccc(OC4CC(Nc5ccc6c(c5)C(=O)N(C5CCC(=O)NC5=O)C6=O)C4)cc3)cc1)CC2 (stereo not drawn) [Example 188] | < 10 | 1000 to 5000 | 12 | – | –
14 | CC(C)(c1ccc(O[C@H]2C[C@H](Nc3ccc4c(c3)C(=O)N(C3CCC(=O)NC3=O)C4=O)C2)cc1)c1ccc(N2CCc3cnc(N4CC5(COC5)C4)nc3C2)cc1 (stereo partly drawn) [Example 189] | < 10 | 5000 to 30000 | 9 | – | –
15 | CC(C)(c1ccc(O[C@H]2C[C@@H](Nc3ccc4c(c3)C(=O)N(C3CCC(=O)NC3=O)C4=O)C2)cc1)c1ccc(N2CCc3cnc(N4CC5(COC5)C4)nc3C2)cc1 (stereo partly drawn) [Example 190] | < 10 | 5000 to 30000 | 12 | – | –
16 | CC(C)(c1ccc(OCc2cnc(N3CC4(COC4)C3)nc2)cc1)c1ccc(O[C@H]2C[C@@H](Nc3ccc4c(c3)C(=O)N(C3CCC(=O)NC3=O)C4=O)C2)cc1 (stereo partly drawn) [Example 193] | 11 to 100 | 1000 to 5000 | 36 | – | –
17 | CC(C)(c1ccc(O[C@H]2C[C@H](Nc3ccc4c(c3)C(=O)N(C3CCC(=O)NC3=O)C4=O)C2)cc1)c1ccc(N2CCc3nc(N4CC5(COC5)C4)ncc3C2)cc1 (stereo partly drawn) [Example 195] | < 10 | 1000 to 5000 | 15 | – | –
18 | CC(C)(c1ccc(OCc2ccnc(N3CC4(CCO4)C3)n2)cc1)c1ccc(O[C@H]2C[C@@H](Nc3ccc4c(c3)C(=O)N(C3CCC(=O)NC3=O)C4=O)C2)cc1 (stereo partly drawn) [Example 196] | < 10 | 1000 to 5000 | 10 | – | –
19 | CC(C)(c1ccc(Oc2ccc(-n3nccn3)nc2)cc1)c1ccc(O[C@H]2C[C@H](Nc3ccc4c(c3)C(=O)N(C3CCC(=O)NC3=O)C4=O)C2)cc1 (stereo partly drawn) [Example 206, 5-((1r,3r)-3-(4-(2-(4-((6-(2H-1,2,3-triazol-2-yl)pyridin-3-yl)oxy)phenyl)propan-2-ylphenoxy)cyclobutyl)amino)-2-(2,6-dioxopiperidin-3-yl)isoindolin-1,3-dione] | < 10 | 5000 to 30000 | 10 | – | –
20 | Cc1nc(-c2ccc(Oc3ccc(C(C)(C)c4ccc(O[C@H]5C[C@H](Nc6ccc7c(c6)C(=O)N(C6CCC(=O)NC6=O)C7=O)C5)cc4)cc3)cn2)no1 (stereo partly drawn) [Example 209] | < 10 | – | – | 5 | A (30-5 μg*h/mL)
21 | C=CC(c1ccc(Oc2cnc(-c3noc(C)n3)nc2)cc1)c1ccc(O[C@H]2C[C@H](Nc3ccc4c(c3)C(=O)N(C3CCC(=O)NC3=O)C4=O)C2)cc1 (stereo partly drawn) [Example 210] | < 10 | 5000 to 30000 | 7 | – | –
